Structures can show the parent of a compound that is named as a salt. Where only a bound is given, the exact number is not on record here.

These results are taken from US8895745B2, “Bicyclic heterocyclic compounds as FGFR inhibitors” (Astex Therapeutics Limited, priority 2006, dated 2014).

The assay concerns LP-1 cell line. Put plainly: Cell-based pERK ELISA method, LP-1 cells. As to conditions: Homo sapiens, LP-1, read-out: IC50 less than 1 μM or at least 50% inhibition at a concentration of 1 μM, LP-1 pERK ELISA. (In general: In an ELISA, binding on a coated surface is turned into a signal by an enzyme label.)
Procedure: LP-1 or JIM-1 multiple myeloma cells were seeded in 96 well plates at 1×10^6 cells/ml in 200 ul per well in serum free media. […] Cells were incubated for 16 h at 37° C. prior to the addition of a test compound for 30 minutes. Test compounds were administered at a 0.1% final DMSO concentration. […] ELISA plates and standards were prepared according o the standard DuoSet protocols and the relative amounts of pERK to total ERK in each sample calculated according to the standard curve.
In particular, compounds of the invention were tested against the LP-1 cell line (DSMZ no.: ACC 41) derived from human multiple myeloma.
For the molecule `CCNC(=O)Nc1cccc(-c2cnc3cc(-c4cccc(OCCOC)c4)ccn23)c1` [Example 83, 1-Ethyl-3-(3-{7-[3-(2-methoxy-ethoxy)-phenyl]-imidazo[1,2-a]pyridin-3-yl}-phenyl)-urea], the IC50 is under 1000 nM.

Take `CC(NC(=O)Nc1cccc(-c2cnc3cc(-c4ccc(F)cc4)ccn23)c1)C(F)(F)F` (stereo not shown) [Example 246, 1-{3-[7-(4-Fluoro-phenyl)-imidazo[1,2-a]pyridin-3-yl]-phenyl}-3-(2,2,2-trifluoro-1-methyl-ethyl)-urea]: the IC50 was under 1000 nM.

For `Cc1ccc(-c2ccn3c(-c4cccc(NC(=O)NCC(F)(F)F)c4)cnc3c2)s1` [Example 270, 1-{3-[7-(5-Methyl-thiophen-2-yl)-imidazo[1,2-a]pyridin-3-yl]-phenyl}-3-(2,2,2-trifluoro-ethyl)-urea formate], the IC50 is under 1000 nM.

Turning to `CC(=O)Nc1cccc(-c2cnc3cc(-c4cccc(CC(=O)O)c4)ccn23)c1` [Example 11, {3-[3-(3-Acetylamino-phenyl)-imidazo[1,2-a]pyridin-7-yl]-phenyl}-acetic acid], the IC50 is under 1000 nM.

On to `CCNC(=O)Nc1cccc(-c2cnc3cc(-c4cccc(CN5CCN(C)CC5)c4)ccn23)c1` [Example 227], for which the IC50 is under 1000 nM.

In the case of `CCNC(=O)Nc1cccc(-c2cnc3cc(-c4ccc(NCCN5CCOCC5)nc4)ccn23)c1` [Example 109, 1-Ethyl-3-(3-{7-[6-(2-morpholin-4-yl-ethylamino)-pyridin-3-yl]-imidazo[1,2-a]pyridin-3-yl}-phenyl)-urea hydro-chloride salt], the IC50 was under 1000 nM.

On to `O=C(NCC(F)(F)F)Nc1cccc(-n2cnc3cc(-c4ccc(F)cc4)ccc32)c1` [Example 175, 1-{3-[5-(4-Fluoro-phenyl)-benzoimidazol-1-yl]-phenyl}-3-(2,2,2-trifluoro-ethyl)-urea], for which the IC50 was under 1000 nM.

Turning to `CCNC(=O)Nc1cncc(-c2cnn3cc(-c4ccc(F)cc4)cnc23)c1` [Example 197, 1-Ethyl-3-{5-[6-(4-fluoro-phenyl)-pyrazolo[1,5-a]pyrimidin-3-yl]-pyridin-3-yl}-urea], the IC50 was under 1000 nM.

In the case of `CN(C)S(=O)(=O)n1cc(-c2ccn3c(-c4cccc(NC(=O)NCC(F)(F)F)c4)cnc3c2)cn1` [Example 262, 4-(3-{3-[3-(2,2,2-Trifluoro-ethyl)-ureido]-phenyl}-imidazo[1,2-a]pyridin-7-yl)-pyrazole-1-sulfonic acid dimethylamide], the IC50 is under 1000 nM.

For the molecule `CCCn1cc(-c2ccn3c(-c4cccc(NC(=O)NCC(F)(F)F)c4)cnc3c2)cn1` [Example 256, 1-{3-[7-(1-Propyl-1H-pyrazol-4-yl)-imidazo[1,2-a]pyridin-3-yl]-phenyl}-3-(2,2,2-trifluoro-ethyl)-urea formate], the IC50 is under 1000 nM.

For `Cc1nc(-c2ccn3c(-c4cccc(NC(=O)NCC(F)(F)F)c4)cnc3c2)cs1` [Example 348, 1-{3-[7-(2-Methyl-thiazol-4-yl)-imidazo[1,2-a]pyridin-3-yl]-phenyl}-3-(2,2,2-trifluoro-ethyl)-urea], the IC50 was under 1000 nM.

For the molecule `COc1cc(-c2ccn3c(-c4cccc(NC(=O)NCC(F)(F)F)c4)cnc3c2)ccc1F` [Example 142, 1-{3-[7-(4-Fluoro-3-methoxy-phenyl)-imidazo[1,2-a]pyridin-3-yl]-phenyl}-3-(2,2,2-trifluoro-ethyl)-urea Hydrochloride], the IC50 is under 1000 nM.

As to `CCNC(=S)Nc1cccc(-c2cnc3cc(-c4cccc(CN5CCN(C)CC5)c4)ccn23)c1` [Example 29, 1-Ethyl-3-(3-{7-[3-(4-methyl-piperazin-1-ylmethyl)-phenyl]-imidazo[1,2-a]pyridin-3-yl}-phenyl)-thiourea], the IC50 was under 1000 nM.

Consider `Cn1c(-c2ccn3c(-c4cccc(NC(=O)NCC(F)(F)F)c4)cnc3c2)n[nH]c1=S` [Example 332, 1-{3-[7-(4-Methyl-5-thioxo-4,5-dihydro-1H-[1,2,4]triazol-3-yl)-imidazo[1,2-a]pyridin-3-yl]-phenyl}-3-(2,2,2-trifluoro-ethyl)-urea], for which the IC50 was under 1000 nM.

In the case of `O=C(NCC(F)(F)F)Nc1cccc(-c2cnn3cc(-c4cccc(CN5CCOCC5)c4)cnc23)c1` [Example 189, 1-{3-[6-(3-Morpholin-4-ylmethyl-phenyl)-pyrazolo[1,5-a]pyrimidin-3-yl]-phenyl}-3-(2,2,2-trifluoro-ethyl)-urea Hydrochloride], the IC50 was under 1000 nM.

Turning to `O=C(NCC(F)(F)F)Nc1cccc(-c2cnn3cc(-c4cccc(C(=O)N5CCOCC5)c4)cnc23)c1` [Example 165, 1-(3-{6-[3-(Morpholine-4-carbonyl)-phenyl]-pyrazolo[1,5-a]pyrimidin-3-yl}-phenyl)-3-(2,2,2-trifluoro-ethyl)-urea], the IC50 was under 1000 nM.

In the case of `O=C(NCC(F)(F)F)Nc1cccc(-c2cnc3cc(N4CCC4)ccn23)c1` [Example 202, 1-[3-(7-Azetidin-1-yl-imidazo[1,2-a]pyridin-3-yl)-phenyl]-3-(2,2,2-trifluoro-ethyl)-urea], the IC50 was under 1000 nM.

Consider `N#Cc1cc(NC(=O)NCC(F)(F)F)cc(-c2cnc3cc(-c4ccc(F)cc4)ccn23)c1` [Example 214, 1-{3-Cyano-5-[7-(4-fluoro-phenyl)-imidazo[1,2-a]pyridin-3-yl]-phenyl}-3-(2,2,2-trifluoro-ethyl)-urea], for which the IC50 was under 1000 nM.

Take `NS(=O)(=O)c1cccc(-c2ccn3c(-c4cccc(NC(=O)NCC(F)(F)F)c4)cnc3c2)c1` [Example 249, 3-(3-{3-[3-(2,2,2-Trifluoro-ethyl)-ureido]-phenyl}-imidazo[1,2-a]pyridin-7-yl)-benzene-sulfonamide formate]: the IC50 is under 1000 nM.

In the case of `CCNC(=O)Nc1cc(-c2cnn3cc(-c4ccc(F)cc4)cnc23)ccn1` [Example 204, 1-Ethyl-3-{4-[6-(4-fluoro-phenyl)-pyrazolo[1,5-a]pyrimidin-3-yl]-pyridin-2-yl}-urea], the IC50 was under 1000 nM.

With `COc1ccn2c(-c3cccc(NC(=O)NCC(F)(F)F)c3)cnc2c1` [Example 336, 1-[3-(7-Methoxy-imidazo[1,2-a]pyridin-3-yl)-phenyl]-3-(2,2,2-trifluoro-ethyl)-urea Formate], the IC50 is under 1000 nM.

For the molecule `CCNC(=O)Nc1cccc(-c2cnc3cc(-c4cccc(C(=O)N5CCN(C)CC5)c4)ccn23)c1` [Example 79, 1-Ethyl-3-(3-{7-[3-(4-methyl-piperazine-1-carbonyl)-phenyl]-imidazo[1,2-a]pyridin-3-yl}-phenyl)-urea], the IC50 was under 1000 nM.

Regarding `CCc1nnc(-c2ccn3c(-c4cccc(NC(=O)NCC(F)(F)F)c4)cnc3c2)s1` [Example 260, 1-{3-[7-(5-Ethyl-[1,3,4]thiadiazol-2-yl)-imidazo[1,2-a]pyridin-3-yl]-phenyl}-3-(2,2,2-trifluoro-ethyl)-urea], the IC50 is under 1000 nM.

In the case of `O=C(NCC(F)(F)F)Nc1cccc(-c2cnc3cc(-c4cc(F)cc(F)c4)ccn23)c1` [Example 254, 1-{3-[7-(3,5-Difluoro-phenyl)-imidazo[1,2-a]pyridin-3-yl]-phenyl}-3-(2,2,2-trifluoro-ethyl)-urea], the IC50 is under 1000 nM.

For `O=C(NCC(F)(F)F)Nc1ccc(F)c(-c2cnc3cc(Cl)ccn23)c1` [Example 252, 1-[3-(7-Chloro-imidazo[1,2-a]pyridin-3-yl)-4-fluoro-phenyl]-3-(2,2,2-trifluoro-ethyl)-urea], the IC50 was under 1000 nM.

With `O=C(NCC(F)(F)F)Nc1cncc(-c2cnc3cc(-c4ccc(F)cc4)ccn23)c1` [Example 218, 1-{5-[7-(4-Fluoro-phenyl)-imidazo[1,2-a]pyridin-3-yl]-pyridin-3-yl}-3-(2,2,2-trifluoro-ethyl)-urea], the IC50 is under 1000 nM.

`CCNC(=O)Nc1cccc(-c2cnc3cc(-c4ccc(=O)n(C)c4)ccn23)c1` [Example 95, 1-Ethyl-3-{3-[7-(1-methyl-6-oxo-1,6-dihydro-pyridin-3-yl)-imidazo[1,2-a]pyridin-3-yl]-phenyl}-urea]: the IC50 was under 1000 nM.

For the molecule `O=C(NCC(F)F)Nc1cccc(-c2cnc3cc(-c4ccc(F)cc4)ccn23)c1` [Example 229, 1-(2,2-Difluoro-ethyl)-3-{3-[7-(4-fluoro-phenyl)-imidazo[1,2-a]pyridin-3-yl]-phenyl}-urea Hydrochloride], the IC50 was under 1000 nM.

Take `CCNC(=O)Nc1cccc(-c2cnc3cc(-c4cnn(C)c4)ccn23)c1` [Example 94, 1-Ethyl-3-{3-[7-(1-methyl-1H-pyrazol-4-yl)-imidazo[1,2-a]pyridin-3-yl]-phenyl}-urea]: the IC50 was under 1000 nM.

For `O=C(NCC(F)(F)F)Nc1cccc(-c2cnc3cc(-c4cccc(F)c4)ccn23)c1` [Example 143, 1-{3-[7-(3-Fluoro-phenyl)-imidazo[1,2-a]pyridin-3-yl]-phenyl}-3-(2,2,2-trifluoro-ethyl)-urea Hydrochloride], the IC50 was under 1000 nM.

Turning to `O=C(NCC(F)(F)F)Nc1cccc(-c2cnc3cc(-c4ccc(F)c(Cl)c4)ccn23)c1` [Example 284, 1-{3-[7-(3-Chloro-4-fluoro-phenyl)-imidazo[1,2-a]pyridin-3-yl]-phenyl}-3-(2,2,2-trifluoro-ethyl)-urea], the IC50 was under 1000 nM.

For `O=C(NCC(F)(F)F)Nc1cc(CO)cc(-c2cnc3cc(-c4ccc(F)cc4)ccn23)c1` [Example 258, 1-{3-[7-(4-Fluoro-phenyl)-imidazo[1,2-a]pyridin-3-yl]-5-hydroxymethyl-phenyl}-3-(2,2,2-trifluoro-ethyl)-urea], the IC50 was under 1000 nM.

`O=C(NCC(F)(F)F)Nc1cccc(-c2cnc3cc(-c4nnco4)ccn23)c1` [Example 330, 1-[3-(7-[1,3,4]Oxadiazol-2-yl-imidazo[1,2-a]pyridin-3-yl)-phenyl]-3-(2,2,2-trifluoro-ethyl)-urea]: the IC50 is under 1000 nM.

As for `COc1ccc(-c2ccn3c(-c4cccc(NC(=O)NCC(F)(F)F)c4)cnc3c2)cc1` [Example 271, 1-{3-[7-(4-Methoxy-phenyl)-imidazo[1,2-a]pyridin-3-yl]-phenyl}-3-(2,2,2-trifluoro-ethyl)-urea], the IC50 is under 1000 nM.
